In patent publication US20070287738A1, “Substituted Cyanopyridines as protein kinase inhibitors” (priority 2006, published 2007):

Molecular target: T1, human PKCθ full length enzyme (Homo sapiens, UniProt Q04759)
T1 construct: human PKCθ full length enzyme (Panvera Cat# P2996); purchased Panvera P2996
Assay: PKCθ IMAP assay
Format: biochemical
Conditions: full length enzyme 1 nM; ATP 6 μM; peptide 100 nM; FP readout; average value
Description: The materials used include the following: human PKCθ full length enzyme (Panvera Cat# P2996); substrate peptide: 5FAM-RFARKGSLRQKNV-OH (Molecular Devices, RP7032); ATP (Sigma Cat # A2383); DTT (Pierce, 20291); 5× kinase reaction buffer (Molecular Devices, R7209); 5× binding buffer A (Molecular Devices, R7282), 5× binding buffer B (Molecular Devices, R7209); IMAP Beads (Molecular Devices, R7284); and 384-well plates (Corning Costar, 3710).
The reaction buffer was prepared by diluting the 5× stock reaction buffer and adding DTT to obtain a concentration of 3.0 mM. The binding buffer was prepared by diluting the 5× binding buffer A. A master mix solution was prepared using a 90% dilution of the reaction buffer containing 2× ATP (12 uM) and 2× peptide (200 nm). Compounds were diluted in DMSO to 20× of the maximum concentration for the IC50 measurement. 27 μl of the master mix solution for each IC50 curve was added to the first column in a 384-well plate and 3 μl of 20× compound in DMSO was added to each well. The final concentration of compound was 2× and 10% DMSO. DMSO was added to the rest of the master mix to increase the concentration to 10%. 10 μl of the master mix containing 10% DMSO was added to the rest of the wells on the plate except the 2nd column. 20 μl was transferred from the first column to the 2nd column.
The compounds were serially diluted in 2:1 ratio starting from the 2nd column. A 2× (2 nM) PKCθ solution was made in the reaction buffer. 10 μl of the PKCθ solution was added to every well to achieve these final concentrations: PKCθ—1 nM; ATP—6 μM; peptide—100 nM; DMSO—5%. Samples were incubated for 25 minutes at room temperature. The binding reagent was prepared by diluting the beads in 1× binding buffer to 800:1. 50 μl of the binding reagent was added to every well and incubated for 20 minutes. FP was measured using Envision2100 (PerkinElmer Life Sciences). Wells with no ATPs and wells with no enzymes were used as controls.

T1 sequence (Q04759 whole entry): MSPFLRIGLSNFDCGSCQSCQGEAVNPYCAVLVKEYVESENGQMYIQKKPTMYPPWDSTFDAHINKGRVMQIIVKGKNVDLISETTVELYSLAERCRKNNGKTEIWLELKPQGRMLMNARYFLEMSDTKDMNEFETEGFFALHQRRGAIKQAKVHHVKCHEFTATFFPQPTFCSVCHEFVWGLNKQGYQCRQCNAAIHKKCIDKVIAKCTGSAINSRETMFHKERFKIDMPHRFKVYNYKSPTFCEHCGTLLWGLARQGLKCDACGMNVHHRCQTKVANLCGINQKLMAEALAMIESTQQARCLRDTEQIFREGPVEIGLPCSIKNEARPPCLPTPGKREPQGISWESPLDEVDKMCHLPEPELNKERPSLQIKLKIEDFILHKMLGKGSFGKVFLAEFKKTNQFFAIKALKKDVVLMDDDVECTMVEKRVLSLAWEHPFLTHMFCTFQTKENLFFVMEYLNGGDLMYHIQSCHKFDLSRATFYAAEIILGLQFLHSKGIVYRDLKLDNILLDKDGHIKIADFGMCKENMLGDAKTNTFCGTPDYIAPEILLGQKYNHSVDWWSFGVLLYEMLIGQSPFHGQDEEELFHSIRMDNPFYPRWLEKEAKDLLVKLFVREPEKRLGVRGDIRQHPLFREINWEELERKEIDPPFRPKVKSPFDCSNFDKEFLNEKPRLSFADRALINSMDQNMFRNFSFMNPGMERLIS

Structure (SMILES)	IC50
COc1ccc(-c2cncc(C#N)c2Nc2cccc(NS(C)(=O)=O)c2)cc1OC [Compound 129, N-(3-{[3-cyano-5-(3,4-dimethoxyphenyl)pyridin-4-yl]amino}phenyl)methanesulfonamide]	36000 nM
CN(C)c1ccc(-c2cncc(C#N)c2Nc2ccc(F)c(F)c2)cc1 [Compound 134, 4-[(3,4-difluorophenyl)amino]-5-[4-(dimethylamino)phenyl]nicotinonitrile]	2030 nM
COc1ccc(-c2cncc(C#N)c2Nc2cccc(OCCO)c2)cc1OC [Compound 160, 5-(3,4-dimethoxyphenyl)-4-{[3-(2-hydroxyethoxy)phenyl]amino}nicotinonitrile]	5210 nM
COc1cccc(-c2cncc(C#N)c2Nc2ccc(C#N)cc2)c1 [Compound 157, 4-[(4-cyanophenyl)amino]-5-(3-methoxyphenyl)nicotinonitrile]	> 95000 nM
COc1ccc(-c2cncc(C#N)c2NCc2cccc(CN)c2)cc1OC [Compound 170, 4-{[3-(aminomethyl)benzyl]amino}-5-(3,4-dimethoxyphenyl)nicotinonitrile]	11900 nM
COc1cccc(Nc2c(C#N)cncc2-c2ccc(N(C)C)cc2)c1 [Compound 130, 5-[4-(dimethylamino)phenyl]-4-[(3-methoxyphenyl)amino]nicotinonitrile]	800 nM
COc1cccc(-c2cncc(C#N)c2Nc2ccc(F)c(F)c2)c1 [Compound 158, 4-[(3,4-difluorophenyl)amino]-5-(3-methoxyphenyl)nicotinonitrile]	2400 nM
Cc1cc(Nc2c(C#N)cncc2-c2cc3cc(CN4CCCCC4)ccc3s2)ccc1N [Compound 166, 4-[(4-amino-3-methylphenyl)amino]-5-[5-(piperidin-1-ylmethyl)-1-benzothien-2-yl]nicotinonitrile]	1060 nM
N#Cc1cncc(-c2cc3cc(CN4CCCCC4)ccc3o2)c1Nc1cc(O)ccc1Oc1ccccc1 [Compound 169, 4-[(5-hydroxy-2-phenoxyphenyl)amino]-5-[5-(piperidin-1-ylmethyl)-1-benzofuran-2-yl]nicotinonitrile]	650 nM
COc1cccc(-c2cncc(C#N)c2Nc2cccc([N+](=O)[O-])c2)c1 [Compound 153, 5-(3-methoxyphenyl)-4-[(3-nitrophenyl)amino]nicotinonitrile]	9630 nM
N#Cc1cncc(-c2cc3cc(CN4CCCCC4)ccc3o2)c1Nc1cc(O)c(Cl)cc1Cl [Compound 171, 4-[(2,4-dichloro-5-hydroxyphenyl)amino]-5-[5-(piperidin-1-ylmethyl)-1-benzofuran-2-yl]nicotinonitrile]	270 nM
CN(C)c1ccc(-c2cncc(C#N)c2Nc2cccc([N+](=O)[O-])c2)cc1 [Compound 152, 5-[4-(dimethylamino)phenyl]-4-[(3-nitrophenyl)amino]nicotinonitrile]	7840 nM
COc1ccc(-c2cncc(C#N)c2Nc2cccc(OC[C@@H](N)Cc3ccccc3)c2)cc1OC [Compound 161, 4-[(3-{[(2S)-2-amino-3-phenylpropyl]-oxy}-phenyl)amino]-5-(3,4-dimethoxyphenyl)nicotinonitrile]	820 nM
Cc1ccc(Cl)c(Nc2c(C#N)cncc2-c2cc3cc(CN4CCCCC4)ccc3o2)c1 [Compound 168, 4-[(2-chloro-5-methylphenyl)amino]-5-[5-(piperidin-1-ylmethyl)-1-benzofuran-2-yl]nicotinonitrile]	2040 nM
CN(C)c1ccc(-c2cncc(C#N)c2Nc2cccc(F)c2)cc1 [Compound 131, 5-[4-(dimethylamino)phenyl]-4-[(3-fluorophenyl)amino]nicotinonitrile]	710 nM
N#Cc1cncc(-c2cc3cc(CN4CCCCC4)ccc3s2)c1Nc1cc(O)ccc1Cl [Compound 163, 4-[(2-chloro-5-hydroxyphenyl)amino]-5-[5-(piperidin-1-ylmethyl)-1-benzothien-2-yl]nicotinonitrile]	30 nM
COc1ccc(Nc2c(C#N)cncc2-c2cc3cc(CN4CCCCC4)ccc3o2)c(C)c1 [Compound 172, 4-[(4-methoxy-2-methylphenyl)amino]-5-[5-(piperidin-1-ylmethyl)-1-benzofuran-2-yl]nicotinonitrile]	160 nM
COc1cccc(Nc2c(C#N)cncc2-c2cccc(OC)c2)c1 [Compound 154, 5-(3-methoxyphenyl)-4-[(3-methoxyphenyl)amino]nicotinonitrile]	1730 nM
COc1cccc(-c2cncc(C#N)c2Nc2ccc(C(=O)O)cc2)c1 [Compound 156, 4-{[3-cyano-5-(3-methoxyphenyl)pyridin-4-yl]amino}benzoic acid]	46400 nM
COc1ccc(-c2cncc(C#N)c2Nc2cccc(N(C)C(C)=O)c2)cc1OC [Compound 128, N-(3-{[3-cyano-5-(3,4-dimethoxyphenyl)pyridin-4-yl]amino}phenyl)-N-methylacetamide]	35000 nM
N#Cc1cncc(-c2cc3cc(C=O)ccc3s2)c1Nc1cc(O)ccc1Cl [Compound 162, 4-[(2-chloro-5-hydroxyphenyl)amino]-5-(5-formyl-1-benzothein-2-yl)nicotinonitrile]	30 nM
Cc1c(N)ccc(Nc2c(C#N)cncc2-c2cc3cc(CN4CCCCC4)ccc3s2)c1C [Compound 165, 4-[(4-amino-2,3-dimethylphenyl)amino]-5-[5-(piperidin-1-ylmethyl)-1-benzothien-2-yl]nicotinonitrile]	650 nM
N#Cc1cncc(-c2cc3cc(CN4CCCCC4)ccc3s2)c1Nc1cc(OCCO)ccc1Cl [Compound 164]	60 nM
COc1ccc(Cl)c(Nc2c(C#N)cncc2-c2cc3cc(CN4CCCCC4)ccc3o2)c1 [Compound 167, 4-[(2-chloro-5-methoxyphenyl)amino]-5-[5-(piperidin-1-ylmethyl)-1-benzofuran-2-yl]nicotinonitrile]	730 nM
COc1ccc(-c2cncc(C#N)c2Nc2cccc(O)c2)cc1OC [Compound 159, 5-(3,4-dimethoxyphenyl)-4-[(3-hydroxyphenyl)amino]nicotinonitrile]	310 nM
COc1cccc(-c2cncc(C#N)c2Nc2cccc(F)c2)c1 [Compound 155, 4-[(3-fluorophenyl)amino]-5-(3-methoxyphenyl)nicotinonitrile]	1570 nM
COc1ccc(-c2cncc(C#N)c2Nc2cccc(NC(C)=O)c2)cc1OC [Compound 127, N-(3-{[3-cyano-5-(3,4-dimethoxyphenyl)pyridin-4-yl]amino}phenyl) acetamide]	570 nM
CN(C)c1ccc(-c2cncc(C#N)c2Nc2ccc(C#N)cc2)cc1 [Compound 133, 4-[(4-cyanophenyl)amino]-5-[4-(dimethylamino)phenyl]nicotinonitrile]	30000 nM
